Assay results: patent publication US4725683A, “Fluorophenoxyphenoxypropionates and derivatives thereof” (The Dow Chemical Company, priority 1985, dated 1988)

What was measured:
Type in all cases: in vivo
Johnson Grass = assay: Preemergent activity; details: Sorghum halepense, pre-emergence, read-out: Preemergence Control
How it was run: (§1)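 Test compound was dissolved in acetone at twice the final concentration, then mixed with an equal volume of water containing 0.1% w/w Tween-20. The resulting emulsion was sprayed uniformly at a predetermined rate onto sandy loam seed beds sown with each species. Controls received acetone–Tween-20–water only.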

Wheat [1] = assay: Preemergent activity; details: Triticum aestivum, pre-emergence, read-out: Preemergence Control
How it was run: as §1

Yellow Foxtail [2] = assay: Preemergent activity; details: Setaria, pre-emergence, read-out: Preemergence Control
How it was run: as §1

Wild Oats [3] = assay: Preemergent activity; details: Avena fatua, pre-emergence, read-out: Preemergence Control
How it was run: as §1

Wheat [4] = assay: Postemergent activity; details: Triticum aestivum, post-emergence, 336 h, read-out: % Control
How it was run: (§2)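 Pots of plants about 10 cm tall sprayed to run-off at 125, 62.5, 31.25, 15.6, 7.8 and 3.9 ppm. Spray: active in acetone mixed with an equal volume of water containing 0.1% TWEEN 200. Growth scored two weeks later on a 0–100 scale (0 no effect, 100 complete kill).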

Wild Oats [5] = assay: Postemergent activity; details: Avena fatua, post-emergence, 336 h, read-out: % Control
How it was run: as §2

Cheatgrass = assay: Postemergent activity
Description: (§3) Representative compositions of the present invention were evaluated for the postemergence control of species of plants listed in Table A. In these evaluations, pots of the plant species listed in Table A, grown to a height of about 10 cms, were used. […] The spray compositions were made by mixing the active ingredient in acetone to 1/2 the final volume, i.e., twice the final concentration. An equal amount of water was added to the active ingredient/acetone mixture wherein the water contained 0.1 percent by weight of TWEEN® 200 surfactant. The application to the plants was made to the point of run-off and was carried out with conventional spraying equipment. […] Thereafter, the pots were maintained under conditions conducive for plant growth.

Green Foxtail = assay: Postemergent activity
Description: as §3

Barley = assay: Postemergent activity
Description: as §3

Blackgrass = assay: Postemergent activity
Description: as §3

Yellow Foxtail [6] = assay: Postemergent activity
Description: as §3

COC(=O)C(C)Oc1ccc(Oc2ccc(Cl)cc2F)cc1 (racemic) [Example 4-Chloro-, 2-[4-(4-chloro-2-fluorophenoxy)phenoxy]propionic acid methyl ester]
80%: pest or weed control at 1120 g/ha (Johnson Grass; 1.12 kgs/hectare) | % Control (Yellow Foxtail [6]; 3.1 ppm)
70%: pest or weed control at 1120 g/ha (Wild Oats [3]; 1.12 kgs/hectare)
20%: pest or weed control at 280 g/ha (Wild Oats [3]; 0.28 kgs/hectare)
99%: % Control (Blackgrass; 25 ppm)
10%: pest or weed control at 140 g/ha (Yellow Foxtail [2]; 0.14 kgs/hectare) | % Control (Cheatgrass; 50 ppm)
60%: pest or weed control at 560 g/ha (Johnson Grass; 0.56 kgs/hectare)
100%: pest or weed control at 31.25 ppm (Wild Oats [5]) | pest or weed control at 250 ppm (Wild Oats [5]) | pest or weed control at 500 ppm (Wild Oats [5]) | % Control (Green Foxtail; 3.1 ppm) | % Control (Green Foxtail; 6.3 ppm) | % Control (Green Foxtail; 12.5 ppm) | % Control (Green Foxtail; 25 ppm) | % Control (Green Foxtail; 50 ppm) | % Control (Green Foxtail; 100 ppm) | % Control (Blackgrass; 6.3 ppm) | % Control (Blackgrass; 12.5 ppm) | % Control (Blackgrass; 50 ppm) | % Control (Blackgrass; 100 ppm) | % Control (Yellow Foxtail [6]; 6.3 ppm) | % Control (Yellow Foxtail [6]; 12.5 ppm) | % Control (Yellow Foxtail [6]; 25 ppm) | % Control (Yellow Foxtail [6]; 50 ppm) | % Control (Yellow Foxtail [6]; 100 ppm)
90%: pest or weed control at 280 g/ha (Yellow Foxtail [2]; 0.28 kgs/hectare) | pest or weed control at 125 ppm (Wild Oats [5])
95%: pest or weed control at 560 g/ha (Yellow Foxtail [2]; 0.56 kgs/hectare) | pest or weed control at 1120 g/ha (Yellow Foxtail [2]; 1.12 kgs/hectare) | pest or weed control at 62.5 ppm (Wild Oats [5]) | % Control (Green Foxtail; 1.56 ppm)
0%: pest or weed control at 70 g/ha (Johnson Grass; 0.07 kgs/hectare) | pest or weed control at 140 g/ha (Johnson Grass; 0.14 kgs/hectare) | pest or weed control at 280 g/ha (Johnson Grass; 0.28 kgs/hectare) | plant injury at 70 g/ha (Wheat [1]; 0.07 kgs/hectare) | plant injury at 140 g/ha (Wheat [1]; 0.14 kgs/hectare) | plant injury at 280 g/ha (Wheat [1]; 0.28 kgs/hectare) | plant injury at 560 g/ha (Wheat [1]; 0.56 kgs/hectare) | plant injury at 1120 g/ha (Wheat [1]; 1.12 kgs/hectare) | pest or weed control at 70 g/ha (Yellow Foxtail [2]; 0.07 kgs/hectare) | pest or weed control at 70 g/ha (Wild Oats [3]; 0.07 kgs/hectare) | pest or weed control at 140 g/ha (Wild Oats [3]; 0.14 kgs/hectare) | plant injury at 15.6 ppm (Wheat [4]) | plant injury at 31.25 ppm (Wheat [4]) | plant injury at 62.5 ppm (Wheat [4]) | plant injury at 125 ppm (Wheat [4]) | plant injury at 250 ppm (Wheat [4]) | % Control (Cheatgrass; 1.56 ppm) | % Control (Cheatgrass; 3.1 ppm) | % Control (Cheatgrass; 6.3 ppm) | % Control (Cheatgrass; 12.5 ppm) | % Control (Cheatgrass; 25 ppm) | % Control (Barley; 15.6 ppm) | % Control (Barley; 31.25 ppm) | % Control (Barley; 62.5 ppm) | % Control (Barley; 125 ppm) | % Control (Barley; 250 ppm)
40%: plant injury at 500 ppm (Wheat [4]) | pest or weed control at 15.6 ppm (Wild Oats [5]) | % Control (Cheatgrass; 100 ppm)
50%: pest or weed control at 560 g/ha (Wild Oats [3]; 0.56 kgs/hectare) | % Control (Barley; 500 ppm) | % Control (Blackgrass; 1.56 ppm) | % Control (Blackgrass; 3.1 ppm) | % Control (Yellow Foxtail [6]; 1.56 ppm)
